# Laboratory results as given in ChEMBL document CHEMBL1201862, “PubChem BioAssay data set” (2004).
# Activity calls are given as the source filed them.
# How the values were obtained:
# [1] = target: Cytochrome P450 2C9 (Homo sapiens, UniProt P11712)
# [2] = target: Cytochrome P450 2D6 (Homo sapiens, UniProt P10635);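 note: CYP2D6 member of a cytochrome P450 panel assay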
# [3] = HEp-2 cell cytotoxicity, dose response, cytotoxicity control for RSV inhibitor project, HTS (AID 2410); type: functional; settings: human respiratory syncytial virus
# [4] = target: T1, Rac GTPase-activating protein 1 (Homo sapiens, UniProt Q9H0H5); assay: MgcRacGAP GTPase-activating activity inhibitors, confirmation, biochemical, ADP Hunter fluorescence, primary and confirmatory (AID 624330); type: functional
# T1 sequence (Q9H0H5 whole entry): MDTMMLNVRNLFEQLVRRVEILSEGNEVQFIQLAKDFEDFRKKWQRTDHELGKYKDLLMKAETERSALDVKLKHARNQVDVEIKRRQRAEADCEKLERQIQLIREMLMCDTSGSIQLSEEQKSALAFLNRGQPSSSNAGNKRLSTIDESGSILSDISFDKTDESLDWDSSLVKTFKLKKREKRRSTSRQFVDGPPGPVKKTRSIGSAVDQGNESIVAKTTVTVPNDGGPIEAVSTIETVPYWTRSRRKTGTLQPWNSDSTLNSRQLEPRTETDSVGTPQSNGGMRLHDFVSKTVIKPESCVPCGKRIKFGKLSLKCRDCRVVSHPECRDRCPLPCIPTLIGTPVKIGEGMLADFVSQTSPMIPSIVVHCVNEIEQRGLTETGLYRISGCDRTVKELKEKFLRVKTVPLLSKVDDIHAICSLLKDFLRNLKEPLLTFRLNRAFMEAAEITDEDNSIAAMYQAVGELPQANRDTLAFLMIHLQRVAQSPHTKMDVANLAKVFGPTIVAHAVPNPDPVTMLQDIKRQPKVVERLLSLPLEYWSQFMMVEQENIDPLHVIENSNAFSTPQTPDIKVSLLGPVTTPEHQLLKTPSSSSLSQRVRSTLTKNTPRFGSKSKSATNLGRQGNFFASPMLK
# [5] = target: T2, Streptokinase A (Streptococcus pyogenes serotype M1, UniProt P10520); assay: S. pyogenes streptokinase expression inhibitors, potency, dose response, plasminogen activation absorbance, OD405 (AID 1914); type: functional, Streptococcus pyogenes M1 GAS;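 note: secreted streptokinase activity via plasminogen activation per viability signal from cell pellet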
# T2 sequence (P10520 whole entry): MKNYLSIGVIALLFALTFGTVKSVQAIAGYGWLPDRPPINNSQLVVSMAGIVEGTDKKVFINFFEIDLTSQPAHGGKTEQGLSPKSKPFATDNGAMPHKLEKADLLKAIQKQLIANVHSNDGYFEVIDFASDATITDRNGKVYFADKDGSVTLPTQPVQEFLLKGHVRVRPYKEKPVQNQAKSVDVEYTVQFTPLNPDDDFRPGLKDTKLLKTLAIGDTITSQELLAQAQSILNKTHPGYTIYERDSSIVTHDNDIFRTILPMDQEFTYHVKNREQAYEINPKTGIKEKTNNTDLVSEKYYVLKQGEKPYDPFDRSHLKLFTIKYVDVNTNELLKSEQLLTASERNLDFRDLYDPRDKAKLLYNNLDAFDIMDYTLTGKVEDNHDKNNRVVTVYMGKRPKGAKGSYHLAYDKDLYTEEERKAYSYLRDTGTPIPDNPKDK
# [6] = system: Streptococcus; assay: Group A Streptococcus viability loss, dose response, counter-screen for streptokinase expression inhibitor project, luminescence, BacTiterGlo (AID 1915); type: functional, organism-based;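 note: potency for reduction of bacterial viability or growth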
# [7] = system: Streptococcus sp. 'group A'; assay: growth inhibition of control SK(-) GAS strain, dose response, counter-screen for streptokinase expression inhibitor project, luminescence, kanamycin, BacTiterGlo, confirmation (AID 1900); type: functional, organism-based
# [8] = cytotoxicity toward NIH3T3 fibroblasts, dose response, counter-screen, cell-based, ATP luminescence, mouse fibroblasts (AID 2010); type: functional;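 note: cells exposed to compound for about 90 hours before reading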
# [9] = inhibitors of intracellular T. cruzi replication, confirmation, NIH3T3 host cells, beta-gal luminescence (AID 2044); type: functional, cell-based;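 note: intracellular parasites grown in NIH/3T3 mouse fibroblasts as host cells; luminescent beta-galactosidase reporter signal from transgenic T. cruzi replicating inside host cells; inhibitors lower the luminescence signal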
# [10] = target: Cytochrome P450 3A4 (Homo sapiens, UniProt P08684);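 note: CYP3A4 tested as one member of a cytochrome P450 panel screen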
# [11] = target: Cytochrome P450 2C19 (Homo sapiens, UniProt P33261); assay: Cytochrome panel assay with activity outcomes. Panel member name: p450-cyp2c19 Compounds with AC50 equal or less than 10 uM are considered active; type: functional; settings: read-out: AC50
# [12] = target: T3, Protein RecA (Mycobacterium tuberculosis, UniProt P9WHJ3); assay: Fluorescence Cell-Free Homogeneous Dose Retest to Identify Inhibitors of RecA-Intein Splicing Activity. [Related pubchem assays (depositor defined):AID2097, AID2223, AID489010, AID492950]; type: functional
# T3 sequence (P9WHJ3 whole entry): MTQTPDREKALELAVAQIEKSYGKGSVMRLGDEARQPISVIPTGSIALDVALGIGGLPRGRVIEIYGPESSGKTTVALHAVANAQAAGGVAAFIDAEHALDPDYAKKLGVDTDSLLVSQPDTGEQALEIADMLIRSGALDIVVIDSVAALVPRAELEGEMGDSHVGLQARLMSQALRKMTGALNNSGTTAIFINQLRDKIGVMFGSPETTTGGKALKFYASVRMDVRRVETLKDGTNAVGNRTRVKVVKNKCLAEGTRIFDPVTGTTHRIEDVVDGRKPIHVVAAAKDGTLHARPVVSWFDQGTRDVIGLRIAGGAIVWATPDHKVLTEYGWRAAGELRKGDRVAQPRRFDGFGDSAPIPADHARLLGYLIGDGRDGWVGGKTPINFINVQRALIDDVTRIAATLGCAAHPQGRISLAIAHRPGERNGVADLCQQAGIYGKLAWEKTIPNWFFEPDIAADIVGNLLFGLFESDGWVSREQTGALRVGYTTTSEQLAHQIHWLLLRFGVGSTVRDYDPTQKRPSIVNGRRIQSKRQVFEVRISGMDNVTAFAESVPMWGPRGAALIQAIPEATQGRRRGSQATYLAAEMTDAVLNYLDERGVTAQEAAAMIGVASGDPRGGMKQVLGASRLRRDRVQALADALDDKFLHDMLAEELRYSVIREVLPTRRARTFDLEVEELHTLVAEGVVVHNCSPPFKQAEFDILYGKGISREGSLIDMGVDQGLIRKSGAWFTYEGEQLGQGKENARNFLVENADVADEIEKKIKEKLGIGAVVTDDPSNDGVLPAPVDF
# [13] = target: T4, Replicative DNA helicase DnaB (Mycobacterium tuberculosis, UniProt P9WMR3); assay: DnaB intein splicing inhibitors, dose response, biochemical, cell-free fluorescence (AID 449749); type: functional
# T4 sequence (P9WMR3 whole entry): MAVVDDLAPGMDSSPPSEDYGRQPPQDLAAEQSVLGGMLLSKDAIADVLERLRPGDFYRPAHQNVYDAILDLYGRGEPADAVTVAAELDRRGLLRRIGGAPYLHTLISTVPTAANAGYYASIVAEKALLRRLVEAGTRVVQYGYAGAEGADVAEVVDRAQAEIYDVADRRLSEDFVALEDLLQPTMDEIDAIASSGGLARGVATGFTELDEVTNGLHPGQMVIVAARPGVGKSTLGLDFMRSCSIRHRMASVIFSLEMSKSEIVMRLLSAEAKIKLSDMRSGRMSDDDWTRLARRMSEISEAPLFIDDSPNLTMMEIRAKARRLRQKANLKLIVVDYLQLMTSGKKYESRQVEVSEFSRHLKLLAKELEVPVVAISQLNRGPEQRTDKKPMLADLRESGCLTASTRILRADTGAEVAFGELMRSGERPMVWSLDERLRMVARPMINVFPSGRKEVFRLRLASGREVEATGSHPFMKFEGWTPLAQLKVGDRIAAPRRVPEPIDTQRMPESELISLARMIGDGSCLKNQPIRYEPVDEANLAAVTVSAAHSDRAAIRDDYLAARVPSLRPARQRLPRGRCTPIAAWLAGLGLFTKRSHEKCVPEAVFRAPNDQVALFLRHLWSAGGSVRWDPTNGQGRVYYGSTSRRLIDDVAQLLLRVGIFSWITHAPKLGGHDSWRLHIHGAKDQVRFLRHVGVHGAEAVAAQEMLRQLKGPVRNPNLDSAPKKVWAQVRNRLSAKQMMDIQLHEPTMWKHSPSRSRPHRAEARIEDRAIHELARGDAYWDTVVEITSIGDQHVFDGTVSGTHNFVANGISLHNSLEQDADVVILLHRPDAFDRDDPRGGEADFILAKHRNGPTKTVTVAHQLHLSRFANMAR
# Chain of Cytochrome P450 2D6 (P10635 whole entry): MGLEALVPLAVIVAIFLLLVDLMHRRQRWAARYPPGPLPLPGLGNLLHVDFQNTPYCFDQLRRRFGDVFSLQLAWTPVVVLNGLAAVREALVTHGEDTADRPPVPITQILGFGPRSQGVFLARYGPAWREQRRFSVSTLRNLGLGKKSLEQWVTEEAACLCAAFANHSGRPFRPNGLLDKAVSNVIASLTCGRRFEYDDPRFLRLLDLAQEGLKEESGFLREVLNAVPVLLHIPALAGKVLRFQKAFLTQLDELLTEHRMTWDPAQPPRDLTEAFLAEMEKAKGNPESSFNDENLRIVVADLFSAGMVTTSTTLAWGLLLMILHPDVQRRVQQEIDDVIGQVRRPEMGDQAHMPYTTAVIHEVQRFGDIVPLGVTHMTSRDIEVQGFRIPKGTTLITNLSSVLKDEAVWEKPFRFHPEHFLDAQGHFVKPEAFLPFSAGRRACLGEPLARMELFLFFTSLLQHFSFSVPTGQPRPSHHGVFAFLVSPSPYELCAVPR
# Chain of Cytochrome P450 2C9 (P11712 whole entry): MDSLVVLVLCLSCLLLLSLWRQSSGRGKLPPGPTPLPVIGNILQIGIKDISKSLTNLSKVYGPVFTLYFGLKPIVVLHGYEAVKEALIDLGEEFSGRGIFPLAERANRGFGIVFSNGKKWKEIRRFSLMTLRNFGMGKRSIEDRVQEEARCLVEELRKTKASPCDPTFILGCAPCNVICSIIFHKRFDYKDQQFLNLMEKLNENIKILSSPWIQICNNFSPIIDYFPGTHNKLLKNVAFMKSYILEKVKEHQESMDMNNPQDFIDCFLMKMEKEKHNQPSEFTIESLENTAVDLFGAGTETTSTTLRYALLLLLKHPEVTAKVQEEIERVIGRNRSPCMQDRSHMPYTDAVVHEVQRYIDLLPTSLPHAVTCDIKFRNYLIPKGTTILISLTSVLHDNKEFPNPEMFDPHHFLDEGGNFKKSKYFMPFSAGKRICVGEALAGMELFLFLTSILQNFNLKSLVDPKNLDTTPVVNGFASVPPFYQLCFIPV
# Chain of Cytochrome P450 2C19 (P33261 whole entry): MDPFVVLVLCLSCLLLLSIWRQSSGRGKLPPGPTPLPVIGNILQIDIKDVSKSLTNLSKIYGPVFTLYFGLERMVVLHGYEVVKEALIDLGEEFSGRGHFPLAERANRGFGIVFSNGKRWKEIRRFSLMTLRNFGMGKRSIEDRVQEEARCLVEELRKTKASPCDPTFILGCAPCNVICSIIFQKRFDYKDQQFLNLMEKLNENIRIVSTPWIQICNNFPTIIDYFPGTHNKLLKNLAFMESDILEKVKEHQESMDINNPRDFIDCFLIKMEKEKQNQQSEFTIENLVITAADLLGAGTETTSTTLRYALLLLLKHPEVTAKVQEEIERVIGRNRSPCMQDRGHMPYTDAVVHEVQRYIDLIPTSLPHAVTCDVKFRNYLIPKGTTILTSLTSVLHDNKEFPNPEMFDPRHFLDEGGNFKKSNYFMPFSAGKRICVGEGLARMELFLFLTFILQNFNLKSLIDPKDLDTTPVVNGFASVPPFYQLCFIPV
# Chain of Cytochrome P450 3A4 (P08684 whole entry): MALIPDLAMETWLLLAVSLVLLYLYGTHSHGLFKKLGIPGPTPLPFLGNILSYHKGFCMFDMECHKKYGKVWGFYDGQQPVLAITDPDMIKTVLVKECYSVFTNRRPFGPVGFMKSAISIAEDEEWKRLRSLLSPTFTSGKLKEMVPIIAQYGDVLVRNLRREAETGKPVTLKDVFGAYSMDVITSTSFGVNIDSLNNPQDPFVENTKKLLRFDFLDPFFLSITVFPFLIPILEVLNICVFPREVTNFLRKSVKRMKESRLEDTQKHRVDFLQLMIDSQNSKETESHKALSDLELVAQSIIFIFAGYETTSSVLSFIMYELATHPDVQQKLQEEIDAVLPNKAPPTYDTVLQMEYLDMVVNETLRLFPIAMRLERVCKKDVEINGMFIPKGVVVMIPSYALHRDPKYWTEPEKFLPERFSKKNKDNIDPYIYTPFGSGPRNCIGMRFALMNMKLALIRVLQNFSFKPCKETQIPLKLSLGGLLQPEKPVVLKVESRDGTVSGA
compound,measurement,setting,value
Clc1ccccc1-c1nc(Nc2ccncc2)c2ccccc2n1,AC50,[1],1.58 µM (inconclusive)
same,AC50,[2],39.8 µM (inconclusive)
CCOC(=O)C1=C(O)c2ccccc2C(=O)/C1=C\c1ccc(C)cc1,CC50,[3],31.5 µM (active)
O=c1c2ccccc2nc(/C=C/c2ccc(O)c(O)c2)n1-c1ccccc1,IC50,[4],73.9 µM (active)
COc1ccccc1NS(=O)(=O)c1cccc(C(=O)OCC(=O)Nc2cc(C)on2)c1,AC50,[1],12.6 µM (inconclusive)
same,AC50,[2],31.6 µM (inconclusive)
Cc1ccccc1-c1nccc(Nc2ccc(F)cc2)n1,AC50,[2],20 µM (inconclusive)
Cc1ccc2nc(Nc3ccc(Cl)cc3)c3nncn3c2c1,CC50,[3],34.4 µM (active)
O=C(c1cc(S(=O)(=O)N2CCOCC2)ccc1F)N(CCc1ccccc1)Cc1ccccc1,CC50,[3],29.8 µM (active)
O=C(Nc1cccc(-c2nnc(-c3ccccc3)o2)c1)c1ccc(Br)o1,EC50,[5],> 150 µM (not active)
same,EC50,[6],14.2 µM (active)
same,EC50,[7],9.53 µM (active)
CN1c2ccccc2C(C)(C)[C@]12C=Cc1cc(O)ccc1O2,CC50,[3],7.32 µM (active)
Brc1ccc(-c2cn3c(n2)CCc2ccc4cccnc4c2-3)cc1,EC50,[5],23.8 µM (active)
same,EC50,[6],> 150 µM (not active)
same,EC50,[7],4.51 µM (active)
CC1=NN(C(=Nc2ccc(C(C)(C)C)cc2)Nc2nnc(C)s2)[C@H](c2ccc(C)cc2)S1,EC50,[5],13.9 µM (active)
same,EC50,[6],> 150 µM (not active)
same,EC50,[8],> 60 µM (not active)
same,EC50,[7],8.28 µM (active)
same,EC50,[9],1.85 µM (active)
COc1ccccc1-c1nc(NCCN2CCOCC2)c2ccccc2n1,AC50,[10],31.6 µM (inconclusive)
same,AC50,[2],31.6 µM (inconclusive)
Oc1ccccc1-[n+]1c(-c2ccccc2)cc(-c2ccccc2)cc1-c1ccccc1.[O-][Cl+3]([O-])([O-])[O-],CC50,[3],11.7 µM (active)
COCCn1c(N)c(C(=O)NS(=O)(=O)c2ccc(C)cc2)c(=O)[nH]c1=O,EC50,[5],> 150 µM (not active)
same,EC50,[6],> 150 µM (not active)
same,EC50,[7],> 150 µM (not active)
C[C@@H]1CC[C@@]2(OC1)O[C@H]1C[C@H]3[C@@H]4CC=C5C[C@@H](O)[C@H](O)C[C@]5(C)C4CC[C@]3(C)[C@H]1[C@@H]2C (stereo partly drawn),EC50,[5],> 150 µM (not active)
same,EC50,[6],16.4 µM (active)
same,EC50,[7],4.77 µM (active)
OCCCn1c(C(CO)Nc2nc(-c3ccc(Cl)cc3)cs2)nc2ccccc21 (stereo not drawn),CC50,[3],15.5 µM (active)
COC(=O)CSc1nnc(-c2cnccn2)n1C,EC50,[5],> 150 µM (not active)
same,EC50,[6],> 150 µM (not active)
same,EC50,[7],> 150 µM (not active)
O=C(Cc1cccs1)Nc1cccc(-c2nnc(-c3ccco3)o2)c1,CC50,[3],> 12.5 µM (active)
O=C(Nc1cccc(F)c1)N1CC2(CCN(S(=O)(=O)c3ccccc3)CC2)C1,AC50,[1],20 µM (inconclusive)
same,AC50,[11],15.8 µM (inconclusive)
same,AC50,[2],39.8 µM (inconclusive)
COc1ccc(C2CC(c3ccccc3)=NN2c2ccc(S(N)(=O)=O)cc2)cc1OC (stereo not drawn),CC50,[3],24.2 µM (active)
Cc1cc2oc(=O)cc(CN(C)Cc3ccccc3Cl)c2cc1C,EC50,[5],14.4 µM (active)
same,EC50,[6],> 150 µM (not active)
same,EC50,[7],20.8 µM (active)
Cc1ccc(C2=C(Cl)C(=O)C(c3ccc(C)cc3)=C(Cl)C2=O)cc1,AC50,[11],3.98 µM (inconclusive)
same,AC50,[2],3.98 µM (inconclusive)
Cc1ccc2nc(-c3ccc(NS(=O)(=O)c4ccc(F)c(F)c4)cc3)sc2c1,EC50,[5],5.1 µM (active)
same,EC50,[6],5.92 µM (active)
same,EC50,[7],2.65 µM (active)
O=C(CSc1nnc(-c2ccccn2)n1Cc1ccco1)c1ccc(-c2ccccc2)cc1,CC50,[3],34.3 µM (active)
O=C(NC(=S)Nc1ccc(Br)cn1)c1cncc(Br)c1,AC50,[1],0.447 µM (inconclusive)
same,AC50,[11],35.5 µM (inconclusive)
same,AC50,[2],0.631 µM (inconclusive)
CC(=O)NCCn1c(SCC(=O)NCc2ccco2)nc2ccccc2c1=O,EC50,[12],9.17 µM (active)
same,AC50,[1],25.1 µM (inconclusive)
same,AC50,[13],7.22 µM (active)
same,AC50,[2],0.0447 µM (inconclusive)
O=C(Nc1cc(Cl)cc(Cl)c1)Nc1cnccn1,EC50,[5],> 150 µM (not active)
same,EC50,[6],> 150 µM (not active)
same,EC50,[7],7.66 µM (active)
CCC1=NN2C(=N)/C(=C/c3ccc(OS(=O)(=O)c4ccccc4)cc3)C(=O)N=C2S1,CC50,[3],> 50 µM (active)
O=C1CCC(C2CCc3cc(O)ccc3C2)C1 (stereo not drawn),IC50,[4],70.4 µM (active)
COc1cccc(/C=N/NC(=O)c2cc(-c3cccn3C)[nH]n2)c1,AC50,[2],0.00794 µM (inconclusive)
CCOc1cc(/C=N/NC(=O)C(=O)NCc2cccnc2)ccc1O,IC50,[4],54.5 µM (active)
CN(C)c1ccc(-c2ccc3ncnc(NCc4ccccc4)c3c2)cc1,AC50,[2],12.6 µM (inconclusive)
